# The supplement of paper PMC10307832
# Columns and labels:
# Test in all cases: relative viability (nuclei count vs DMSO), 5 days (fraction); higher = more cells survive
# [1] = compound: C1CSC2=C(C(=O)N1)SC3=C2C=C(C=C3)O [kb NB 142-70] + CC(=O)c1c(C)c2cnc(Nc3ccc(N4CCNCC4)cn3)nc2n(C2CCCC2)c1=O [Palbociclib] (partner 0.5 µM)
# How it was run: (§1)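 Five library-drug doses in √10 steps were combined with a fixed anchor-drug dose, or a single drug was given alone, by pin tool to lung cancer cell lines in 1536-well plates the day after seeding. Nuclei were stained and counted after 5 days. Relative viability is the nuclei count in treated wells over that in vehicle wells, taken as the median of duplicate plates.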
# [2] = compound: C1CSC2=C(C(=O)N1)SC3=C2C=C(C=C3)O [kb NB 142-70] + CC1(C)CCC(c2ccc(Cl)cc2)=C(CN2CCN(c3ccc(C(=O)NS(=O)(=O)c4ccc(N[C@H](CCN5CCOCC5)CSc5ccccc5)c(S(=O)(=O)C(F)(F)F)c4)cc3)CC2)C1 [Navitoclax] (partner 0.5 µM)
# How it was run: as §1
# [3] = compound: C1CSC2=C(C(=O)N1)SC3=C2C=C(C=C3)O [kb NB 142-70] + C[C@]1(O)C[C@@H](c2nc(-c3ccc4ccc(-c5ccccc5)nc4c3)c3c(N)nccn32)C1 [Linsitinib] (partner 1 µM)
# How it was run: as §1
# [4] = compound: C1CSC2=C(C(=O)N1)SC3=C2C=C(C=C3)O [kb NB 142-70] + N=C(N)NC(=N)NCCc1ccccc1 [Phenformin] (partner 250 µM)
# How it was run: as §1
# kb NB 142-70 + Olaparib = compound: C1CSC2=C(C(=O)N1)SC3=C2C=C(C=C3)O [kb NB 142-70] + O=C(c1cc(Cc2n[nH]c(=O)c3ccccc23)ccc1F)N1CCN(C(=O)C2CC2)CC1 [Olaparib] (partner 8 µM)
# How it was run: as §1
# [5] = compound: NCC(=O)Nc1ccc(-n2nc(C(F)(F)F)cc2-c2ccc3c(ccc4ccccc43)c2)cc1 + Cc1nc(NC(=O)N2CCC[C@H]2C(N)=O)sc1-c1ccnc(C(C)(C)C(F)(F)F)c1 [Alpelisib] (partner 2 µM)
# How it was run: as §1
cell line,measurement,setting,value
UMC-11,relative viability,[1]; first compound 0.1 µM,0.322
same,relative viability,[1]; first compound 1 µM,0.344
same,relative viability,[1]; first compound 3.162 µM,0.324
same,relative viability,[2]; first compound 0.1 µM,0.293
same,relative viability,[2]; first compound 1 µM,0.267
same,relative viability,[2]; first compound 3.162 µM,0.184
same,relative viability,[3]; first compound 0.1 µM,1.04
same,relative viability,[3]; first compound 1 µM,0.984
same,relative viability,[3]; first compound 3.162 µM,0.599
same,relative viability,[4]; first compound 0.1 µM,0.338
same,relative viability,[4]; first compound 1 µM,0.307
same,relative viability,[4]; first compound 3.162 µM,0.251
same,relative viability,kb NB 142-70 + Olaparib; first compound 0.1 µM,0.309
same,relative viability,kb NB 142-70 + Olaparib; first compound 1 µM,0.315
same,relative viability,kb NB 142-70 + Olaparib; first compound 3.162 µM,0.199
same,relative viability,[5]; first compound 0.02 µM,0.985
same,relative viability,[5]; first compound 0.06325 µM,0.968
same,relative viability,[5]; first compound 0.2 µM,1.03
same,relative viability,[5]; first compound 0.6325 µM,0.958
same,relative viability,[5]; first compound 2 µM,1.1
